# Reference: US20170050957A1, “4-AMINO-6-(HETEROCYCLIC)PICOLINATES AND 6-AMINO-2-(HETEROCYCLIC)PYRIMIDINE-4-CARBOXYLATES AND THEIR USE AS HERBICIDES” (Dow AgroSciences LLC, priority 2013, published 2017)
# Read-outs that look alike come from different tables or passages of the source.
# How the values were obtained:
# [1] = tested on: Key Grass and Sedge Weeds as well as Grass Crops; experiment: Post-emergent Test II herbicidal activity (Table 16); assay type: in vivo; settings: post-emergence, 336 h, 14 days after application; for pest or weed control at 35 g/ha: 35 g ai/ha; for pest or weed control at 70 g/ha: 70 g ai/ha; for pest or weed control at 140 g/ha: 140 g ai/ha
# How it was run: (§1)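 Plants grown in greenhouse (~15 h photoperiod, 23-29 °C day, 22-28 °C night) to first or second true leaf stage, then sprayed post-emergence at 187 L/ha with a high rate and 1/2×, 1/4×, 1/8× and 1/16× dilutions. Injury scored visually after 14 d, 0-100% versus untreated plants.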
# [2] = tested on: Key Broadleaf Weed and Crop Species; experiment: Post-emergent Test II herbicidal activity (Table 15); assay type: in vivo; settings: post-emergence, 336 h, 14 d; for pest or weed control at 35 g/ha: 35 g ai/ha; for pest or weed control at 70 g/ha: 70 g ai/ha; for pest or weed control at 140 g/ha: 140 g ai/ha
# How it was run: as §1
# [3] = Cyperus esculentus, yellow nutsedge (Cyperus esculentus), read-out: Visual Growth Reduction (%) 14 Days After Application CYPES
# [4] = Echinochloa crus-galli, barnyardgrass (Echinochloa crus-galli), read-out: Visual Growth Reduction (%) 14 Days After Application ECHCG
# [5] = Oryza sativa, rice (Oryza sativa), read-out: Visual Growth Reduction (%) 14 Days After Application ORYSA
# [6] = Setaria faberi, giant foxtail (Setaria faberi), read-out: Visual Growth Reduction (%) 14 Days After Application SETFA
# [7] = Triticum aestivum, wheat, spring (Triticum aestivum), read-out: Visual Growth Reduction (%) 14 Days After Application TRZAS
# [8] = Zea mays, maize, corn (Zea mays), read-out: Visual Growth Reduction (%) 14 Days After Application ZEAMX
# [9] = Abutilon theophrasti, velvetleaf (Abutilon theophrasti), read-out: Visual Growth Reduction (%) 14 Days After Application, ABUTH
# [10] = Amaranthus retroflexus, redroot pigweed (Amaranthus retroflexus), read-out: Visual Growth Reduction (%) 14 Days After Application, AMARE
# [11] = Brassica napus, oilseed rape, canola (Brassica napus), read-out: Visual Growth Reduction (%) 14 Days After Application, BRSNN
# [12] = Chenopodium album, lambsquarters (Chenopodium album), read-out: Visual Growth Reduction (%) 14 Days After Application, CHEAL
# [13] = Euphorbia heterophylla, wild poinsettia (Euphorbia heterophylla), read-out: Visual Growth Reduction (%) 14 Days After Application, EPHHL
# [14] = Helianthus annuus, sunflower (Helianthus annuus), read-out: Visual Growth Reduction (%) 14 Days After Application, HELAN
SMILES,"pest or weed control at 35 g/ha [1, 3] [%]","pest or weed control at 70 g/ha [1, 3] [%]","pest or weed control at 140 g/ha [1, 3] [%]","pest or weed control at 35 g/ha [1, 4] [%]","pest or weed control at 70 g/ha [1, 4] [%]","pest or weed control at 140 g/ha [1, 4] [%]","pest or weed control at 35 g/ha [1, 5] [%]","pest or weed control at 70 g/ha [1, 5] [%]","pest or weed control at 140 g/ha [1, 5] [%]","pest or weed control at 35 g/ha [1, 6] [%]","pest or weed control at 70 g/ha [1, 6] [%]","pest or weed control at 140 g/ha [1, 6] [%]","pest or weed control at 35 g/ha [1, 7] [%]","pest or weed control at 70 g/ha [1, 7] [%]","pest or weed control at 140 g/ha [1, 7] [%]","pest or weed control at 35 g/ha [1, 8] [%]","pest or weed control at 70 g/ha [1, 8] [%]","pest or weed control at 140 g/ha [1, 8] [%]",melting point,"pest or weed control at 35 g/ha [2, 9] [%]",other results
COc1c(N)nc(-c2ccc3sccc3c2)nc1C(=O)O [Compound 3.09],0 to 29,0 to 29,0 to 29,85 to 94,85 to 94,85 to 94,0 to 29,0 to 29,0 to 29,0 to 29,0 to 29,0 to 29,60 to 74,75 to 84,85 to 94,60 to 74,75 to 84,85 to 94,137 to 139 °C,0 to 29,"pest or weed control at 70 g/ha [2, 9]: 0 to 29%; pest or weed control at 140 g/ha [2, 9]: 45 to 59%; pest or weed control at 35 g/ha [2, 10]: 30 to 44%; pest or weed control at 70 g/ha [2, 10]: 75 to 84%; pest or weed control at 140 g/ha [2, 10]: 85 to 94%; pest or weed control at 35 g/ha [2, 11]: 45 to 59%; pest or weed control at 70 g/ha [2, 11]: 85 to 94%; pest or weed control at 140 g/ha [2, 11]: 95 to 100%; pest or weed control at 35 g/ha [2, 12]: 85 to 94%; pest or weed control at 70 g/ha [2, 12]: 85 to 94%; pest or weed control at 140 g/ha [2, 12]: 95 to 100%; pest or weed control at 35 g/ha [2, 13]: 95 to 100%; pest or weed control at 70 g/ha [2, 13]: 95 to 100%; pest or weed control at 140 g/ha [2, 13]: 95 to 100%; pest or weed control at 35 g/ha [2, 14]: 60 to 74%; pest or weed control at 70 g/ha [2, 14]: 75 to 84%; pest or weed control at 140 g/ha [2, 14]: 85 to 94%"
Nc1c(Cl)c(C(=O)O)nc(-c2ccc3ccsc3c2)c1Cl [Compound 3.11],0 to 29,0 to 29,0 to 29,0 to 29,0 to 29,0 to 29,0 to 29,0 to 29,0 to 29,0 to 29,0 to 29,0 to 29,0 to 29,0 to 29,0 to 29,0 to 29,0 to 29,0 to 29,239 °C (dec.),0 to 29,"pest or weed control at 70 g/ha [2, 9]: 0 to 29%; pest or weed control at 140 g/ha [2, 9]: 0 to 29%; pest or weed control at 35 g/ha [2, 11]: 0 to 29%; pest or weed control at 70 g/ha [2, 11]: 0 to 29%; pest or weed control at 140 g/ha [2, 11]: 0 to 29%; pest or weed control at 35 g/ha [2, 12]: 85 to 94%; pest or weed control at 70 g/ha [2, 12]: 85 to 94%; pest or weed control at 140 g/ha [2, 12]: 85 to 94%; pest or weed control at 35 g/ha [2, 13]: 0 to 29%; pest or weed control at 70 g/ha [2, 13]: 0 to 29%; pest or weed control at 140 g/ha [2, 13]: 0 to 29%; pest or weed control at 35 g/ha [2, 14]: 85 to 94%; pest or weed control at 70 g/ha [2, 14]: 85 to 94%; pest or weed control at 140 g/ha [2, 14]: 85 to 94%"
